# US20070253994A1, “Intraspinal Drug Delivery Methods and Devices To Alleviate Chronic Pelvic Pain” (Medtronic, Inc., priority 2006, published 2007)
# Entries after “also recorded” stand apart in the source; their conditions may differ. Where a name gives a salt, the structure may show the parent alone.
# Tests used:
# [1] = tested on: micturition reflex of female rats; test: micturition reflex (cystometrogram) of female rats in the interstitial cystitis (IC) model of visceral pain, acetic acid bladder infusion; format: in vivo, rat; settings: for frequency of acetic-acid-induced contractions compared with rate during saline infusion, both doses: both doses of Table 1
# [2] = tested on: patients with chronic nonbacterial prostatitis; settings: typically orally administered; cited from earlier work
# [3] = female rats, acetic acid infusion, intrathecal, doses of Table 1
# [4] = urethane-anesthetized female rats, 0.5% acetic acid bladder infusion, intrathecal, two ascending doses (Table 1)
compound,measurement,setting,value
NCC(CC(=O)O)c1ccc(Cl)cc1 (stereo not drawn) [Baclofen],amplitude of bladder contractions,[1]; [3],Neither baclofen nor ketorolac reduced the amplitude of bladder contraction
same,"frequency of acetic-acid-induced contractions compared with rate during saline infusion, both doses","[1]; female rats, intrathecal",reduced the acetic-acid-induced contraction frequency in a dose-dependent manner without suppressing it below the normal rate of contraction observed with saline infusion
same,micturition reflex frequency,[1]; [4],statistically significant only at the higher dose
same,micturition reflex frequency,"[1]; urethane-anesthetized female rats, 0.5% acetic acid bladder infusion, intrathecal, two ascending doses (Table 1), listed as baclofen",suppressed micturition reflex frequency in a dose-dependent fashion
"CCCCN1CCCCC1C(=O)Nc1c(C)cccc1C (stereo not drawn) [Bupivacaine, Bupivacaine HCl]",amplitude of bladder contractions,[1]; [3],no effect on the amplitude of contraction
same,"frequency of acetic-acid-induced contractions compared with rate during saline infusion, both doses","[1]; female rats, intrathecal",reduced the frequency of acetic-acid-induced contractions below the rate observed during saline infusion
same,micturition reflex frequency,"[1]; urethane-anesthetized female rats, 0.5% acetic acid bladder infusion, intrathecal, two ascending doses (Table 1), HCl",suppressed micturition reflex frequency in a dose-dependent fashion; also recorded: appeared to suppress the micturition frequency at both doses
"Clc1cccc(Cl)c1N=C1NCCN1 [Clonidine, Clonidine HCl]",micturition reflex frequency,[1]; [4],no measurable effect
"CNCCCN1c2ccccc2CCc2ccccc21 [Desipramine, Desipramine HCl]",amplitude of bladder contractions,[1]; [3],Neither of these drugs suppressed the amplitude of bladder contractions
same,micturition reflex frequency at the higher dose,"[1]; female rats, acetic acid infusion, intrathecal, higher dose of Table 1",effective at reducing the reflex frequency
same,micturition reflex frequency at the lower dose,"[1]; female rats, acetic acid infusion, intrathecal, lower dose of Table 1",not at the lower dose
same,"frequency of acetic-acid-induced bladder contractions compared with frequency during saline infusion, higher dose","[1]; female rats, intrathecal, higher dose of Table 1",reduced the frequency of acetic-acid-induced bladder contractions to a level comparable to the normal frequency of contraction seen with saline infusion
same,micturition reflex frequency,[1]; [4],suppressed micturition reflex frequency in a dose-dependent fashion
NCC1(CC(=O)O)CCCCC1 [Gabapentin],amplitude of bladder contractions,"[1]; rat, in vivo",Neither of these drugs suppressed the amplitude of bladder contractions
same,"frequency of acetic-acid-induced bladder contractions compared with frequency during saline infusion, higher dose","[1]; rat, in vivo",reduced the frequency of acetic-acid-induced bladder contractions to a level comparable to the normal frequency of contraction seen with saline infusion
same,micturition reflex frequency,"[1]; rat, in vivo",suppressed micturition reflex frequency in a dose-dependent fashion
same,micturition reflex frequency at the higher dose,"[1]; rat, in vivo",effective at reducing the reflex frequency
same,micturition reflex frequency at the lower dose,"[1]; rat, in vivo",not at the lower dose
"O=C(c1ccccc1)c1ccc2n1CCC2C(=O)O (stereo not drawn) [Ketorolac, Ketorolac tris]","rats exhibiting a lower reflex frequency, lower dose","[1]; 10 rats, intrathecal, lower dose (100 μg per Table 1)",8 of 10
same,amplitude of bladder contractions,[1]; [3],Neither baclofen nor ketorolac reduced the amplitude of bladder contraction
same,"frequency of acetic-acid-induced contractions compared with rate during saline infusion, both doses","[1]; female rats, intrathecal",reduced the acetic-acid-induced contraction frequency in a dose-dependent manner without suppressing it below the normal rate of contraction observed with saline infusion
same,"rats in which reflex frequency was reduced, high dose","[1]; ten rats tested, intrathecal, high dose (500 μg per Table 1)",each of the ten rats tested
same,micturition reflex frequency,[1]; [4],suppressed micturition reflex frequency in a dose-dependent fashion
pentosan polysulfate,patients for whom treatment proved successful,[2],approximately 40%
